Reference: US10463664B2, “Inhibitors of HSV nucleotidyl transferases and uses therefor” (Saint Louis University, priority 2013, dated 2019)

Columns and labels:
HSV-1 strain KOS = test: Resistance evolution by passage of HSV-1 KOS in presence of inhibitor; assay type: cell-based, herpes simplex virus 1; settings: compared with unselected KOS
Experimental: Cultures were scraped and collected when virus-induced cytopathic effect was evident (24-72 h). […] This process was repeated three times, maintaining the independent lineages. […] Inhibition was determined by subtracting a lineage's titer in the presence of inhibitor from its titer in the presence of diluent control.

HCMV strain AD169 [1] = test: Anti-HCMV CPE inhibition assay (crystal violet) in HFFs; assay type: cell-based, human cytomegalovirus; settings: 14 days; for EC50: read-out: EC50 against HCMV, CPE inhibition assay
Experimental: Anti-HCMV CPE inhibition and cytotoxicity assays. HFFs were infected with HCMV strain AD169 in the presence of serial dilutions of the compounds from 0.0192 to 60 μM. Fourteen days later the monolayers were stained with crystal violet, and retained cell density was quantified using a multiplate autoreader (BioTek). Cytotoxicity was measured the same way, except that the cells were uninfected and neutral red internalization by viable cells was measured.
Antiviral efficacy against HCMV. The ability of select HSV inhibitors to inhibit replication of another major human herpesvirus pathogen, human cytomegalovirus (HCMV) (65) was tested. This was based on the inhibitors strong suppression of HSV-1 and HSV-2 and the prediction that other members of the herpesvirus family would be sensitive to NTS inhibitors due to their shared DNA replication mechanism. Compounds #41, 46, 49, 55, 56, and 59 and the FDA-approved anti-HCMV drug ganciclovir were evaluated with crystal violet CPE and neutral red toxicity assays in HFFs. HFFs were infected with HCMV in the presence of serial dilutions of the compounds that were most inhibitory for HSVs. After 14 days the monolayers were stained and cell density was determined by OD reading. Compound cytotoxicity for uninfected cells was determined in the same manner except that neutral red uptake by viable cells was measured. […] The TI values for the four NTS inhibitors of HCMV ranged from 4 for compound #41 to 38 for #56. Therefore, NTS inhibitors can suppress HCMV replication in addition to inhibiting the HSVs.

[2] = tested on: TK-deficient mutant of HSV-2 strain 333, ΔTK-; test: Replication inhibition of thymidine kinase-deficient HSV-2 mutant in Vero cells; assay type: cell-based, herpes simplex virus 2; settings: 50 μM, 24 h
Experimental: Cells and Viruses. Vero cells were maintained in Dulbecco's modified Eagle's medium (DMEM) containing 3% newborn calf serum, 3% bovine growth serum, 2 mM L-glutamine and 100 IU/mL penicillin and 0.1 mg/mL streptomycin (P/S). Primary human foreskin fibroblasts (ATCC #CRL2429™) were cultured in DMEM containing 10% FBS, 2 mM L-glutamine plus P/S, and used at passage 3 to 12. HSV-1 #6 and HSV-2 #1 are de-identified clinical isolates from the Saint Louis University Hospital. Stocks were prepared after a single passage in cell culture and were titered by standard plaque assay (Knipe and Spang, 1982). Wild-type HSV-1 and HSV-2 used in FIG. 6 were laboratory strains 17 and 333, respectively. The HSV-1 TK-deficient mutant, ΔTK contains a 361-bp deletion between the BglII-SmaI restriction enzyme sites in the UL23 open reading frame of strain 17 (Korom, et al., 2013). The TK-deficient mutant of HSV-2 strain 333, ΔTK-, contains a 180-bp KpnI-KpnI deletion in the UL23 open reading frame that abrogates TK activity (McDermott, et al, 1984). ΔTK- was the generous gift of Jim Smiley. Virus stocks were grown and titered on Vero cells (Morrison and Knipe, 1996).
Inhibition of acyclovir-resistant HSV-1 and HSV-2 mutants. […] HSV TK-deficient mutants are therefore insensitive to ACV. […] Vero cells were infected with laboratory strains of HSV-1 or HSV-2 and engineered TK-deficient mutants of the same strains. […] Similar patterns were seen when the compounds were used at 5 μM (FIG. 8B), although inhibition by compound #30 at 5 μM was too low to definitively interpret.

HCMV strain AD169 [3] = test: HCMV plaque reduction assay in HFFs; assay type: cell-based, human cytomegalovirus; settings: 10 days, read-out: EC50 against HCMV, plaque reduction assay
Experimental: HCMV plaque reduction EC50 and toxicity assays. Low passage primary HFFs were infected with HCMV strain AD169 in the presence of serial dilutions of the compounds from 0.032 to 100 μM. Ten days later the monolayers were stained with 1% neutral red solution in PBS. After rinsing, plaques were counted using a stereomicroscope and the EC50 was interpolated from the data. Cytotoxicity was measured using a plate-based assay in which compounds were added to HFFs at 0.032 to 100 μM. At the end of the incubation period, plates were stained for 1 h with a neutral red solution in PBS. The stain was then removed, the plates rinsed in PBS and dried, and dye internalized by viable cells was determined at OD550. CC50 values were interpolated from the data.
Compounds #41, 46, 49, 55, 56, and 59 and the FDA-approved, anti-HCMV drug ganciclovir were subsequently evaluated with plaque reduction and toxicity assays in HFFs. HFFs were infected with HCMV in the presence of serial dilutions of the compounds. After 10 days the cultures were stained with neutral red and plaques were counted. Compound cytotoxicity for uninfected cells was determined in the same manner except that neutral red uptake by viable cells was measured by optical density. […] The TI values for the five NTS inhibitors of HCMV ranged from 5 for compound #46 to 17 for #55 and 59. Therefore, NTS inhibitors can suppress HCMV replication in addition to inhibiting the HSVs.

HSV-1 = test: Topical treatment of mice infected with HSV-1 on the cornea; assay type: in vivo; settings: for Body weight post-infection: 1 μg three times daily for 5 days
Experimental: Compounds were administered at 1 μg/eye in 10% DMSO. Two mice were treated with 10% DMSO as a negative control. The corneal surface was swabbed once per day on days 1, 2, 4 and 5 post-infection and titer of virus shed from the epithelium was determined by standard plaque assay. On the fifth day post-infection mice were euthanized and the trigeminal ganglia (TG) and brainstems were dissected. The tissues were disrupted and virus in them quantified by plaque assay. […] Weight of individual mice was recorded daily. […] Saline was a negative control. On the fifth day post-infection mice were euthanized and the trigeminal ganglia (TG) and brainstems were dissected. The tissues were disrupted and virus in them quantified by plaque assay.
Body weight was monitored daily post-infection as a sensitive indicator of overall health (FIG. 12).
Infected mice treated with saline served as a negative control.

Vero cells = test: CytoTox-Glo cellular lysis assay in Vero cells; assay type: cell-based; settings: 24 h; read-out: Vero cell toxicity CTG CC50
Experimental: Quantitative toxicity measurements were conducted for all compounds that suppressed HSV replication by approximately 2 login or more at 5 μM plus a number of compounds with lesser inhibitory activity for comparison. Toxicity was assessed by measuring release of intracellular proteases into the culture medium due to cellular lysis. […] Consistent with the subjective assessments of toxicity, all compounds selected for quantitative toxicity assessment had CC50 values ≥50 μM by both the MTT and cellular lysis assays (Table 1).

[4] = 7.5 μg/eye three times per day, BALB/c mice, versus saline control
[5] = 1 μg/eye once daily, compared with DMSO control

SMILES | Sensitivity of inhibitor-selected lineages after 3 rounds of growth (in words) (HSV-1 strain KOS) | EC50 against HCMV, CPE inhibition assay (HCMV strain AD169 [1]) | EC50 (HCMV strain AD169 [1]; Human betaherpesvirus 5, AD169, 336 h) [µM] | Inhibition of TK-mutant HSV-2 (in words) [2] | EC50 (HCMV strain AD169 [3]; Human betaherpesvirus 5, AD169, 240 h) [µM] | Titers of virus in the TG on day 5 post-infection (HSV-1; [4]) | Titers of virus in the brainstem on day 5 post-infection (HSV-1; [4]) | Body weight post-infection (HSV-1) | Virus in the TG at 5 days post-infection (HSV-1; [5]) | Virus shed in the tear film (HSV-1; [5]) | CC50 (Vero cells) [µM] | EC50 (HCMV strain AD169 [1]) [µM] | EC50 (HCMV strain AD169 [3]) [µM] | Virus in the brainstem at 5 days post-infection (HSV-1; [5])
Cc1cc(C2CCCCC2)n(O)c(=O)c1 [Compound 41, Ciclopirox, reference compound] | remained as sensitive | very low μM range | 2.1 | efficiently inhibited | 0.33 | lower | lower | – | – | – | – | – | – | –
Nc1nc2c(ncn2COCCO)c(=O)[nH]1 [ACV, Acyclovir, reference compound] | – | – | – | little effect | – | reduced to a similar extent | – | maintained their weight through 8 days post-infection | significantly reduced | transiently reduced | – | – | – | –
CCOc1ccc(-c2c3cc(O)c(=O)cc-3oc3cc(O)c(O)cc23)cc1 [Compound 30] | – | – | – | efficiently inhibited | – | – | – | – | – | – | > 100 | – | – | –
CC(C)=CCc1ccc(O)c(=O)cc1C(C)C [Compound 49, Nootkatin] | – | very low μM range | – | – | – | – | – | – | – | – | > 100 | 1.7 | 0.45 | –
CC(=O)NC(CCc1ccc(Cl)c(Cl)c1)c1cccc(O)c(=O)c1 (centres unmarked) [Compound 55] | – | – | – | – | – | – | – | – | – | – | > 100 | > 60 | 0.47 | –
CC(C)c1ccc(O)c(=O)c(O)c1 [Compound 46, Beta-thujaplicinol] | remained as sensitive | very low μM range | – | efficiently inhibited | – | – | – | maintained their weight through 8 days post-infection | significantly reduced | transiently reduced | > 100 | 1.4 | 1.3 | significantly reduced
C=C(C)C1CCc2c(c(C)cc(O)c(=O)c2O)C1 (centres unmarked) [Compound 56, Manicol] | – | very low μM range | – | – | – | – | – | – | – | – | ~100 | 38.4 | 2.66 | –
